The values that follow come from paper PMC10219169, “Thiopurines Analogues with Additional Ring: Synthesis, Spectroscopic Properties, and Anticancer Potency” (International Journal of Molecular Sciences, 2023).

As usually defined, the IC50 is the concentration needed to halve the response being measured. A higher IC50 goes with lower potency. As usually defined, the pKa is the pH at which an ionisable group is half protonated. High values mean a group that holds its proton tightly, low ones a group that gives up its proton readily.

Like-named read-outs stand apart in the source and are kept apart here.

In one data set the test system is HeLa cells. Put plainly: CellTiter-Glo cell viability assay (24 h), HeLa. The format is cell-based, human. The following applies: for IC50: CellTiter-Glo; for selectivity index (SI): SI = IC50 normal cell (NIH/3T3) / IC50 cancerous cell (HeLa); for reduction of HeLa cell viability: c = 80 μM. The protocol: (§1) The compounds in this work were tested for their in vitro inhibitory effect on the viability of the HeLa (cancerous) cell line using the CellTiter-Glo® 2.0 cell viability assay (24 h). In addition, the mouse fibroblast NIH/3T3 cell line was used to assess the effects of the compounds on healthy normal cells. […] The 6TG was used as a standard in all tests conducted. The graph of percentage cell viability (y axis) against concentrations of the tested compounds (x axis) and concentration-viability curves with IC50 values from dose-response studies are presented in Figure 4 and Figure 5, respectively.
(§2) The cytotoxicity of the synthesized compounds was tested using cell lines of cervical cancer (HeLa) and mouse fibroblasts (NIH/3T3). Both cell lines were cultured in Dulbecco′s Modified Eagle′s medium (31053, Sigma-Aldrich-Gibco, Thermo Fisher Scientific, Waltham, MA, USA) supplemented with 10% fetal bovine serum (Biowest, Nuaillé, France), 1% Glutamax (Thermo Fisher Scientific, Waltham, MA, USA), and 1% Antibiotic-Antimycotic (Biowest) under standard culture conditions (95% humidity, 5% CO2, at 37 °C). For the purpose of cytotoxicity assays, cells (from both cell lines) were seeded at a density of ca. 5000 cells/well on a 96-well microplate (white, flat bottom), in 4 replicates. 6-Me-TEGuo, 6-Me-TEGua, TEGuo, TEGua, and 6-Me-TEG were tested for their potential cytotoxicity using the following concentrations: 160 (except 6-Me-TEG), 80, 40, 20, 10, 5, and 2.5 μM. Additionally, 6-thioguanine (6TG) in concentrations of 10, 7.5, 5, 2.5, 1.25, and 0.625 μM was tested. All assays included non-treated cells and cells treated with 10% DMSO as negative and positive controls, respectively. The cells were incubated for 24 h under standard culture conditions. Cytotoxicity was measured as cell viability with the CellTiter-Glo® Luminescent Cell Viability Assay (Promega, Madison, WI, USA) according to the manufacturer’s protocol. The microplate luminescence was measured using an Infinite® 200 PRO plate reader (Tecan, Männedorf, Switzerland). Then, the average luminescence of non-labeled cells was equated to 100%, and the remaining values were proportionally normalized. The IC50 values were calculated from the fitting curves using Origin 2022.

In another data set the test system is NIH/3T3 cells. Put plainly: CellTiter-Glo cell viability assay (24 h), NIH/3T3. The format is cell-based. The following applies: Mus musculus, NIH3T3, NIH/3T3, 24 h. The protocol: as §1, §2
Data set [1] is described as follows: n-octanol/phosphate buffer pH 7.4 partition coefficient (lipophilicity determination). The format is physicochemical. As to conditions: 1-octanol/phosphate buffer pH 7.4, read-out: Experimental log Po/w (pH 7.4). The procedure: The key parameter in drug design and one of the most important properties for all the pharmacokinetic rules is the octanol/water partition coefficient, log Po/w. It is defined as the partition coefficient ratio of a compound between the hydrophobic and hydrophilic phases and corresponds to lipophilicity, which describes drug interactions with membranes and the possibility of their transport across the membrane into the cell. The values of log Po/w were determined experimentally for all the tested compounds and compared with the values theoretically estimated on the SwissADME [23] webserver.
The partition coefficients of the tested compounds were determined for n-octanol/phosphate buffer pH 7.4 at 25 °C and 37 °C. The initial concentrations of the compounds (1.0 × 10^−5 M and 2.0 × 10^−5 M) were measured spectrophotometrically, according to the Beer–Lambert law. The absorbances were recorded at λmax of the appropriate compound against a suitable phosphate buffer blank. A quantity of 1 mL of the solution of the tested compound in the phosphate buffer at pH 7.4 and 1 mL of n-octanol were placed in 2 mL Eppendorf tubes. The samples were shaken manually (2 min), vortexed (5 min), and incubated for 5 h at 25 °C or 37 °C. Then, the tubes were centrifuged (2 min, 10,000 rpm). Both layers were carefully separated, and the absorbances were measured for the aqueous layers at a suitable λmax against the blank of the phosphate buffer at a suitable pH. The given logPo/w values are the mean of three independent experiments (one experiment: 3 samples for 2 concentrations of each compound).

Data set [2] in a line: pKa determination by spectrophotometric method. The format is physicochemical. As to conditions: for fraction existing in ionic form: at physiological pH (7.32–7.42); for pKa: spectrophotometric method, buffer solutions of different pH. The protocol: The synthesized compounds, due to their structure, can be hydrogen donors as well as acceptors. Depending on the pH, they can exist in protonated or deprotonated forms. In order to establish which form of the new tricyclic thiopurine derivatives is favored at neutral pH (the conditions under which the in vitro tests will be carried out), their pKa values were determined by spectrophotometric methods (see Table 1 and the Experimental Section). […] This means that at physiological pH (7.32–7.42), about 6% of TEGuo/TEGua exist in ionic form, while 6-Me-TEGuo/6-Me-TEGua only about 4%.
UV-vis absorption spectra were recorded using a Cary 100 spectrophotometer scanning from 800 to 200 nm with 1 nm increments in 1 cm × 1 cm quartz cells. Emission spectra were taken in 1 cm × 1 cm quartz cells on a JASCO FP–8300 spectrofluorometer (excitation and emission slits 5 nm, scan speed 500 nm min^−1) for solutions with absorbance at the excitation wavelength less than 0.1. The fluorescence quantum yields were determined using 10-methylacridinium cation in water (Φ = 1.0) as a standard. The dissociation constants were determined by the spectrophotometric method: in a first step, buffer solutions of different pH were prepared. The pH of solutions was determined by a Mettler Toledo F20 FiveEasy pH meter equipped with a pH electrode LE438 3 in 1 (Mettler Toledo). In the second step, equal volumes of a substance dissolved in water (10 μL) were added to the buffer solution (3 mL). The spectra were recorded with 1 nm resolution over the range from 220 to 550 nm to obtain different spectra around the maximum λ for each compound studied. The purity of all samples was monitored by an HPLC method. HPLC measurements were performed using an Agilent 1200 Rapid Resolution UHPLC system equipped with a reversed-phase column (Eclipse Plus C18, […], 4.6 × 250 mm). A gradient of acetonitrile in water was used as an eluent. The water was doubly distilled and purified using a Milli-Q system (Millipore, Bedford, MA, USA). The fluorescence lifetime measurements were recorded using a Fluorescence Lifetime Spectrometer (FluoTime 300 from PicoQuant) with a time-correlated single-photon counting detection system equipped with a 378 nm laser as its excitation source. All experiments were carried out in a standard quartz cell (1 cm × 1 cm).

Data set [3] in a line: pKa* of singlet excited state from pH-dependent fluorescence emission. The format is physicochemical. The following applies: determined from emission from the singlet excited state. The protocol: At pH 4.0, as was the case for the absorbance at 352 nm, the intensity and shape of the fluorescence signal were similar to those observed in water solution for all the compounds tested. However, in the case of basic pH, a two-fold increase in the emission intensity and a blueshift of the emission maximum were observed.
UV-vis absorption spectra were recorded using a Cary 100 spectrophotometer scanning from 800 to 200 nm with 1 nm increments in 1 cm × 1 cm quartz cells. Emission spectra were taken in 1 cm × 1 cm quartz cells on a JASCO FP–8300 spectrofluorometer (excitation and emission slits 5 nm, scan speed 500 nm min^−1) for solutions with absorbance at the excitation wavelength less than 0.1. The fluorescence quantum yields were determined using 10-methylacridinium cation in water (Φ = 1.0) as a standard. The dissociation constants were determined by the spectrophotometric method: in a first step, buffer solutions of different pH were prepared. The pH of solutions was determined by a Mettler Toledo F20 FiveEasy pH meter equipped with a pH electrode LE438 3 in 1 (Mettler Toledo). […] The spectra were recorded with 1 nm resolution over the range from 220 to 550 nm to obtain different spectra around the maximum λ for each compound studied. The purity of all samples was monitored by an HPLC method. […]

Where [4] appears, read: n-octanol/phosphate buffer pH 7.4, pH 7.4, 25 °C.
Where [5] appears, read: n-octanol/phosphate buffer pH 7.4, pH 7.4, 37 °C.

Regarding `S=c1c2nc[nH]c2nc2[nH]ccn12` [TEGua, 9-thio-1,N^2-ethenoguanine], the IC50 in the data set on HeLa cells (Homo sapiens, HeLa, 24 h) stood at 137 µM; in the data set on NIH/3T3 cells, 97.9 µM. The logP at 5 h in data set [1] (setting [4]) was 0.58; in data set [1] (setting [5]), 0.52. Moreover, in data set [2], the “fraction existing in ionic form” value is “about 6%”. Besides, in data set [2], the pKa is 8.6.

In the case of `CC(=O)OC[C@H]1O[C@@H](n2cnc3c(=S)n4cc(C)[nH]c4nc32)[C@H](OC(C)=O)[C@@H]1OC(C)=O` [6-Me-TEG, 2′,3′,5′-tri-O-acetyl-6-methyl-9-thio-1,N^2-ethenoguanosine], in the data set with HeLa cells (HeLa, concentration range 2.5 μM to 80 μM, 24 h), the “effect on HeLa cell viability” value is “no effect on HeLa cell viability was observed”. Moreover, the logP at 5 h in data set [1] (setting [4]) was determined as 0.8; in data set [1] (setting [5]) it was 0.75.

Consider `OC[C@H]1O[C@@H](n2cnc3c(=S)n4cc[nH]c4nc32)[C@H](O)[C@@H]1O` [TEGuo, 9-thio-1,N^2-ethenoguanosine], for which the IC50 is under 100 µM with HeLa cells (HeLa, 24 h); 80.2 µM with HeLa cells (Homo sapiens, HeLa, 24 h); 83.6 µM in the data set with NIH/3T3 cells. Besides, in the data set on HeLa cells, the “selectivity index (SI)” value was over 1. Besides, the “pKa* (singlet excited state)” value in data set [3] turned out to be 8.7. For the same compound, the logP at 5 h was -0.89 in data set [1] (setting [4]) and -0.96 in data set [1] (setting [5]). Also, in data set [2], the “fraction existing in ionic form” value is reported as “about 6%”. Further, in data set [2], the pKa is 8.6.

For the compound `Cc1cn2c(=S)c3nc[nH]c3nc2[nH]1` [6-Me-TEGua, 6-methyl-9-thio-1,N^2-ethenoguanine], the IC50 was under 100 µM with HeLa cells (HeLa, 24 h); 78.2 µM in the data set on HeLa cells (Homo sapiens, HeLa, 24 h); 51.6 µM with NIH/3T3 cells. Besides, in the data set with HeLa cells (HeLa, 24 h), the “reduction of HeLa cell viability” value was “up to 57%”. Also, the logP at 5 h amounted to 0.75 in data set [1] (setting [4]) and 0.7 in data set [1] (setting [5]). In addition, the “fraction existing in ionic form” value in data set [2] was “about 4%”. The same compound yielded a pKa in data set [2] of 8.8.

Turning to `Cc1cn2c(=S)c3ncn([C@@H]4O[C@H](CO)[C@@H](O)[C@H]4O)c3nc2[nH]1` [6-Me-TEGuo, 6-methyl-9-thio-1,N^2-ethenoguanosine], the IC50 with HeLa cells (HeLa, 24 h) is under 100 µM; with HeLa cells (Homo sapiens, HeLa, 24 h), 55.8 µM; in the data set on NIH/3T3 cells it was 63.8 µM. For the same compound, in the data set with HeLa cells (HeLa, 24 h), the “reduction of HeLa cell viability” value was “up to 42%”. The “selectivity index (SI)” value in the data set on HeLa cells is given as over 1. For the same compound, the “pKa* (singlet excited state)” value in data set [3] was found to be 8.9. Further, the logP at 5 h in data set [1] (setting [4]) was -0.61; in data set [1] (setting [5]), -0.67. Also, the “fraction existing in ionic form” value in data set [2] was “about 4%”. The pKa in data set [2] was 8.8.

As for `Nc1nc2nc[nH]c2c(=S)[nH]1` [6TG, 6-thioguanine, reference compound], the “selectivity index (SI)” value in the data set with HeLa cells is over 1.
